Several values for one entry are separate records, joined by “and”; a condition that tells them apart may be missing. Equal values may be shown once. Inconclusive results and toxic doses are left out.
System: L1210 leukemia ip in BDF1 mice, survival T/C
Assay: NCI In Vivo Anticancer Drug Screen. Data for tumor model L1210 Leukemia (intraperitoneal) in B6D2F1 (BDF1) mice
Conditions: endpoint: mean survival time, higher = longer survival
Outline: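 Antitumor effect is assessed in tumor-bearing animals. Survival in the compound arm is compared with a vehicle-dosed control arm and expressed as their quotient.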

[1] = dose: 50.0 mg/kg/injection, schedule: Q01DX009 (ip), vehicle: saline with Tween-80
[2] = dose: 100.0 mg/kg/injection, schedule: Q01DX009 (ip), vehicle: saline with Tween-80
[3] = dose: 100.0 mg/kg/injection, schedule: Q04DX003 (ip), vehicle: saline with Tween-80
[4] = dose: 200.0 mg/kg/injection, schedule: Q04DX003 (ip), vehicle: saline with Tween-80

Cc1ccc(NC(=O)N2CC2C)cc1NC(=O)N1CC1C (stereo not drawn)
T/C (dose: 2.5 mg/kg/injection, schedule: Q01DX009 (ip), vehicle: saline): 118 % of control
T/C (dose: 20.0 mg/kg/injection, schedule: Q01DX009 (ip), vehicle: saline): 197 % of control

O=C1C=C(c2ccccc2)c2cccc3cccc1c23
T/C (dose: 50.0 mg/kg/injection, schedule: Q01DX001 (ip), vehicle: Klucel (hydroxypropylcellulose) (HPC)): 98 % of control
T/C (dose: 100.0 mg/kg/injection, schedule: Q01DX001 (ip), vehicle: Klucel (hydroxypropylcellulose) (HPC)): 87 % of control
T/C (dose: 200.0 mg/kg/injection, schedule: Q01DX001 (ip), vehicle: Klucel (hydroxypropylcellulose) (HPC)): 92 % of control

CCc1ccc(NC(=O)N(CCCl)N=O)cc1
T/C (dose: 10.0 mg/kg/injection, schedule: Q01DX009 (ip), vehicle: Klucel (hydroxypropylcellulose) (HPC)): 168 % of control and 175 % of control
T/C (dose: 20.0 mg/kg/injection, schedule: Q01DX009 (ip), vehicle: Klucel (hydroxypropylcellulose) (HPC)): 157 % of control and 172 % of control
T/C (dose: 25.0 mg/kg/injection, schedule: Q04DX003 (ip), vehicle: Klucel (hydroxypropylcellulose) (HPC)): 124 % of control
T/C (dose: 40.0 mg/kg/injection, schedule: Q01DX009 (ip), vehicle: Klucel (hydroxypropylcellulose) (HPC)): 88 % of control
T/C (dose: 50.0 mg/kg/injection, schedule: Q04DX003 (ip), vehicle: Klucel (hydroxypropylcellulose) (HPC)): 150 % of control and 159 % of control
T/C (dose: 100.0 mg/kg/injection, schedule: Q01DX001 (ip), vehicle: carboxymethylcellulose (CMC)): 101 % of control
T/C (dose: 200.0 mg/kg/injection, schedule: Q04DX003 (ip), vehicle: Klucel (hydroxypropylcellulose) (HPC)): 105 % of control

Cc1cc(C)c(CN)cc1CN
T/C (dose: 25.0 mg/kg/injection, schedule: Q01DX009 (ip), vehicle: saline with Tween-80): 95 % of control
T/C [1]: 98 % of control
T/C [2]: 100 % of control
T/C [3]: 97 % of control

N#COc1cccc(OCCOc2cccc(OC#N)c2)c1
T/C [1]: 99 % of control
T/C (dose: 50.0 mg/kg/injection, schedule: Q04DX003 (ip), vehicle: saline with Tween-80): 97 % of control
T/C (dose: 100.0 mg/kg/injection, schedule: Q01DX001 (ip), vehicle: saline with Tween-80): 89 % of control
T/C [2]: 94 % of control
T/C [3]: 90 % of control
T/C (dose: 200.0 mg/kg/injection, schedule: Q01DX001 (ip), vehicle: saline with Tween-80): 87 % of control
T/C (dose: 200.0 mg/kg/injection, schedule: Q01DX009 (ip), vehicle: saline with Tween-80): 100 % of control
T/C [4]: 87 % of control

CC(=O)Nc1cc2c(cc1[N+](=O)[O-])-c1ccccc1C2O (stereo not drawn)
T/C (dose: 25.0 mg/kg/injection, schedule: Q04DX003 (ip), vehicle: saline): 94 % of control
T/C (dose: 50.0 mg/kg/injection, schedule: Q04DX003 (ip), vehicle: saline): 100 % of control
T/C (dose: 100.0 mg/kg/injection, schedule: Q01DX001 (ip), vehicle: saline): 87 % of control
T/C (dose: 100.0 mg/kg/injection, schedule: Q01DX009 (ip), vehicle: saline): 102 % of control
T/C [3]: 102 % of control
T/C (dose: 100.0 mg/kg/injection, schedule: Q04DX003 (ip), vehicle: saline): 96 % of control
T/C (dose: 150.0 mg/kg/injection, schedule: Q01DX009 (ip), vehicle: saline): 92 % of control
T/C [4]: 101 % of control
T/C (dose: 225.0 mg/kg/injection, schedule: Q01DX009 (ip), vehicle: saline): 105 % of control
T/C (dose: 400.0 mg/kg/injection, schedule: Q04DX003 (ip), vehicle: saline with Tween-80): 104 % of control

CC1(C)C2CCC1(C)C(OCCCN=C(N)CSS(=O)(=O)O)C2 (stereo not drawn)
T/C (dose: 1.5 mg/kg/injection, schedule: Q04DX002 (ip), vehicle: Klucel (hydroxypropylcellulose) (HPC)): 113 % of control
T/C (dose: 3.0 mg/kg/injection, schedule: Q04DX002 (ip), vehicle: Klucel (hydroxypropylcellulose) (HPC)): 100 % of control
T/C (dose: 6.0 mg/kg/injection, schedule: Q04DX002 (ip), vehicle: Klucel (hydroxypropylcellulose) (HPC)): 91 % of control

CC1c2[nH]c3ccccc3c2CC1C(=O)O (stereo not drawn)
T/C (dose: 100.0 mg/kg/injection, schedule: Q04DX002 (ip), vehicle: saline with Tween-80): 97 % of control
T/C (dose: 200.0 mg/kg/injection, schedule: Q04DX002 (ip), vehicle: saline with Tween-80): 91 % of control
T/C (dose: 400.0 mg/kg/injection, schedule: Q04DX002 (ip), vehicle: saline with Tween-80): 100 % of control

Cc1ccnc(NC(=O)Nc2ccccc2Cl)c1
T/C (dose: 100.0 mg/kg/injection, schedule: Q04DX002 (ip), vehicle: Klucel (hydroxypropylcellulose) (HPC)): 90 % of control
T/C (dose: 200.0 mg/kg/injection, schedule: Q04DX002 (ip), vehicle: Klucel (hydroxypropylcellulose) (HPC)): 93 % of control
T/C (dose: 400.0 mg/kg/injection, schedule: Q04DX002 (ip), vehicle: Klucel (hydroxypropylcellulose) (HPC)): 118 % of control

— PubChem BioAssay AID248 (DTP/NCI, 2004)
